A short description of data set [1]: Selectivity index, ratio of CC50 for cytotoxicity against human calu-3 cells to EC50 for antiviral activity against SARS CoV-2 USA-WA1/2020 infected in human Calu-3 cells. Type of data set: toxicity, cell-based. The settings on record: read-out: Ratio CC50/EC50.
Data set [2] in a line: Selectivity index, ratio of CC50 for african green monkey Vero/TMPRSS2 cells to EC50 for antiviral activity against SARS CoV-2 USA-WA1/2020 infected in Vero/TMPRSS2 cells. It counts as toxicity, cell-based. Conditions: read-out: Ratio CC50/EC50.
The nature of data set [3]: Selectivity index, ratio of CC50 for cytotoxicity against human Huh7.5 cells to EC50 for antiviral activity against SARS CoV-2 USA-WA1/2020 infected in human Huh7.5 cells. The settings on record: read-out: Ratio CC50/EC50. Type of data set: toxicity, cell-based.
Data set [4] relates to SARS-CoV-2. The experiment in a line: Antiviral activity against SARS CoV-2 USA-WA1/2020 infected in human Calu-3 cells pretreated for 30 to 60 mins followed by viral infection and measured after 40 to 44 hrs by sytox green staining based analysis. It counts as functional, organism-based, Severe acute respiratory syndrome coronavirus 2.
Data set [5] can be described thus: Cytotoxicity against human iPSC-lung cells assessed as reduction in number of nuclei incubated for 24 hrs by celltiter glo assay. Type of data set: toxicity, cell-based, iPSC-Lung cell.
The nature of data set [6]: Cytotoxicity against human Calu-3 cells assessed as reduction in cell viability incubated for 40 to 44 hrs by celltiter-glo assay. It counts as toxicity, cell-based. The settings on record: time 40-44 hrs. In general terms: Cellular ATP, detected with luciferase, serves as a proxy for viable cell number.
Data set [7] is described as follows: Cytotoxicity against human Huh7.5 cells assessed as reduction in cell viability incubated for 48 hrs by celltiter glo assay. Type of data set: toxicity, cell-based, Huh-7.5.
Data set [8] concerns SARS-CoV-2. The experiment in a line: Antiviral activity against SARS CoV-2 USA-WA1/2020 infected in human iPSC-lung cells pretreated for 30 to 60 mins followed by viral infection and measured after 24 hrs post infection by sytox green staining based analysis. Type of data set: functional, organism-based. Conditions: Severe acute respiratory syndrome coronavirus 2, USA-WA1/2020, iPSC-Lung cell; for EC90: time 1470-1500 min.

For data set [9], the system named is SARS-CoV-2. Nature of the data set: Antiviral activity against SARS CoV-2 USA-WA1/2020 infected in Vero/TMPRSS2 cells pretreated for 30 to 60 mins followed by viral infection and measured after 38 hrs post infection by sytox green staining based immunofluorescence analysis. Type of data set: functional, organism-based. The settings on record: Severe acute respiratory syndrome coronavirus 2, USA-WA1/2020, Vero/TMPRSS2; for EC90: time 2310-2340 min.

Data set [10] concerns SARS-CoV-2. The experiment in a line: Antiviral activity against SARS CoV-2 USA-WA1/2020 infected in human Huh7.5 cells pretreated for 30 to 60 mins followed by viral infection and measured after 48 hrs post infection by sytox green staining based immunofluorescence analysis. It counts as functional, organism-based. The settings on record: Severe acute respiratory syndrome coronavirus 2, USA-WA1/2020, Huh7.5; for EC90: time 2910-2940 min.

Data set [11] in a line: Cytotoxicity against african green monkey Vero/TMPRSS2 cells assessed as reduction in cell viability incubated for 38 hrs by celltiter glo assay. Type of data set: toxicity, cell-based. Conditions: chlorocebus aethiops.
In data set [12] the test system is SARS-CoV-2. The experiment in a line: Potency index, ratio of remdesivir EC50 to test compound EC50 for antiviral activity against SARS CoV-2 USA-WA1/2020 infected in human Calu-3 cells pretreated for 30 to 60 mins followed by viral infection and measured after 40 to 44 hrs by sytox green staining based analysis. The settings on record: time 2430-2700 min. Type of data set: functional, Severe acute respiratory syndrome coronavirus 2.

Data set [13] in a line: Selectivity index, ratio of CC50 for cytotoxicity against human iPSC-lung cells to EC50 for antiviral activity against SARS CoV-2 USA-WA1/2020 infected in human iPSC-lung cells. It counts as toxicity, cell-based. Conditions: read-out: Ratio CC50/EC50.
For data set [14], the system named is SARS-CoV-2. Nature of the data set: Antiviral activity against SARS CoV-2 USA-WA1/2020 infected in human Calu-3 cells assessed as reduction in viral RNA pretreated for 30 mins followed by viral infection and measured after 48 hrs by qRT-PCR analysis. Type of data set: functional, organism-based. Conditions: Severe acute respiratory syndrome coronavirus 2, USA-WA1/2020, Calu-3.

The nature of data set [15]: Cytotoxicity against human Calu-3 cells assessed as reduction in cell viability incubated for 48.5 hrs by CellTiter-Glo assay. It counts as toxicity, cell-based.
Where [16] appears, read: Severe acute respiratory syndrome coronavirus 2, USA-WA1/2020, Calu-3.
Where [17] appears, read: Severe acute respiratory syndrome coronavirus 2, USA-WA1/2020, Calu-3, time 2430-2700 min.

Data on 15 compounds can be found in ChEMBL document CHEMBL5380858 (J Med Chem, 2023).

What is called EC50 is the midpoint of the concentration-response curve. The term EC90 denotes the point of the concentration-response curve where the effect stands at 90%. In general, CC50 refers to the concentration at which the toxic effect on the cells reaches its halfway point.

For `CCCCCCCCCCCCCCCCCCOC[C@H](COP(=O)(O)OC[C@H]1O[C@@](C#N)(c2ccc3c(N)ncnn23)[C@H](O)[C@@H]1O)OCc1cccc(F)c1`, the selectivity ratio in [1] is 422; in [2] it was greater than 369; in data set [3] it was 392.
Take `CCCCCCCC/C=C\CCCCCCCCOC[C@H](COP(=O)(O)OC[C@H]1O[C@@](C#N)(c2ccc3c(N)ncnn23)[C@H](O)[C@@H]1O)OCc1ccc(OC)c(F)c1`: the EC50 in the data set with SARS-CoV-2 [4] (setting [16]) is 0.07 µM; with SARS-CoV-2 [8], 0.082 µM; with SARS-CoV-2 [9], 0.3 µM; with SARS-CoV-2 [10] it was 0.054 µM. The EC90 came out at 0.149 µM in the data set with SARS-CoV-2 [4] (setting [17]), 0.175 µM with SARS-CoV-2 [8], 0.554 µM with SARS-CoV-2 [9] and 0.095 µM in the data set on SARS-CoV-2 [10]. For the same compound, in data set [5], the half-maximal cytotoxic concentration (CC50) at 24 h was greater than 20 µM. Moreover, in data set [6], the CC50 worked out at 58.7 µM. Besides, the CC50 at 48 h in [7] is greater than 100 µM. Besides, the selectivity ratio was 839 in [1], greater than 333 in data set [2], greater than 1850 in data set [3] and greater than 243 in [13]. The CC50 at 38 h in data set [11] is greater than 100 µM. Moreover, the “Ratio EC50” value with SARS-CoV-2 [12] is given as 3.3.
Consider `CCCCCCCCCCCCCCCCCCOC[C@H](COP(=O)(O)OC[C@H]1O[C@@](C#N)(c2ccc3c(N)ncnn23)[C@H](O)[C@@H]1O)OCc1ccc(C#N)cc1`, for which the selectivity ratio is 1400 in data set [1] and 1970 in data set [3].
Consider `CCCCCCCCCCCCCCCCCCOC[C@H](COP(=O)(O)OC[C@H]1O[C@@](C#N)(c2ccc3c(N)ncnn23)[C@H](O)[C@@H]1O)OCc1ccccc1C#N`, for which the selectivity ratio in [1] was 909; in [2], greater than 337; in data set [3], greater than 980. In the data set with SARS-CoV-2 [9], the EC50 was 0.296 µM. For the same compound, in data set [11], the CC50 at 38 h was greater than 1010 µM.
`CCCCCCCCCCCCCCCCCCOC[C@H](COP(=O)(O)OC[C@H]1O[C@@](C#N)(c2ccc3c(N)ncnn23)[C@H](O)[C@@H]1O)OCc1ccc(C(F)(F)F)cc1`: in data set [1], the selectivity ratio turned out to be 509.
`CCCCCCCCCCCCCCCCOC[C@H](COP(=O)(O)OC[C@H]1O[C@@](C#N)(c2ccc3c(N)ncnn23)[C@H](O)[C@@H]1O)OCc1ccc(OC)c(F)c1`: the selectivity ratio is 1480 in data set [1], greater than 246 in data set [2], 1180 in data set [3] and greater than 153 in data set [13].
Take `N#C[C@@]1(c2ccc3c(N)ncnn23)O[C@H](CO)[C@@H](O)[C@H]1O` [GS-441524]: the EC50 with SARS-CoV-2 [14] came to 0.15 µM. Moreover, the EC90 in the data set on SARS-CoV-2 [14] (time 48.5 hrs) worked out at 0.18 µM. The selectivity ratio in data set [1] was greater than 666. Further, the CC50 at 48.5 h in data set [15] is greater than 100 µM.
`CCCCCCCCCCCCCCCCCCOC[C@H](COP(=O)(O)OC[C@H]1O[C@@](C#N)(c2ccc3c(N)ncnn23)[C@H](O)[C@@H]1O)OCCC1CCCCC1`: the results for the selectivity ratio in data set [1] and in data set [3] were 685 and 758, respectively.
As for `CCCCCCCCCCCCCCCCCCOC[C@H](COP(=O)(O)OC[C@H]1O[C@@](C#N)(c2ccc3c(N)ncnn23)[C@H](O)[C@@H]1O)OCc1cccc(C(F)(F)F)c1`, in [1], the selectivity ratio came out at 418.
In the case of `CCCCCCCC/C=C\CCCCCCCCOC[C@H](COP(=O)(O)OC[C@H]1O[C@@](C#N)(c2ccc3c(N)ncnn23)[C@H](O)[C@@H]1O)OCc1ccccc1`, the 50% effective concentration (EC50) came out at 0.193 µM in the data set with SARS-CoV-2 [4] (setting [16]), 0.267 µM with SARS-CoV-2 [8], 0.293 µM in the data set with SARS-CoV-2 [9] and 0.109 µM in the data set on SARS-CoV-2 [10]. The EC90 in the data set on SARS-CoV-2 [4] (setting [17]) was 0.324 µM; in the data set with SARS-CoV-2 [8], 0.555 µM; in the data set with SARS-CoV-2 [9], 0.57 µM; with SARS-CoV-2 [10], 0.224 µM. In addition, the CC50 at 24 h in data set [5] was greater than 20 µM. In addition, the CC50 in data set [6] amounted to 79.2 µM. Further, the CC50 at 48 h in data set [7] was greater than 100 µM. For the same compound, the selectivity ratio in [1] is 410; in data set [2] it was greater than 341; in [3] it was greater than 917; in data set [13], greater than 74. Further, the CC50 at 38 h in [11] was greater than 100 µM.
Turning to `CCCCCCCCCCCCCCCCCCOC[C@H](COP(=O)(O)OC[C@H]1O[C@@](C#N)(c2ccc3c(N)ncnn23)[C@H](O)[C@@H]1O)OCc1cccc(C#N)c1`, the values for the selectivity ratio in data set [1] and in data set [3] were 1810 and 2070, respectively.
Turning to `CCCCCCCCCCCCCCCCCCOC[C@H](COP(=O)(O)OC[C@H]1O[C@@](C#N)(c2ccc3c(N)ncnn23)[C@H](O)[C@@H]1O)OCCCCCCCC`, the EC50 in the data set on SARS-CoV-2 [4] (calu-3) worked out at 0.16 µM. Further, the EC90 in the data set with SARS-CoV-2 [4] (time 2430-2700 min) turned out to be 0.625 µM. For the same compound, the selectivity ratio in data set [1] is greater than 255; in [2], greater than 129; in data set [3], greater than 177.
For `CCCCCCCCCCCCCCCCOC[C@H](COP(=O)(O)OC[C@H]1O[C@@](C#N)(c2ccc3c(N)ncnn23)[C@H](O)[C@@H]1O)OCc1ccccc1`, the selectivity ratio in data set [1] is 934; in [2], greater than 248; in data set [3] it was greater than 763.
For `CCCCCCCCCCCCCCCCCCOC[C@H](COP(=O)(O)OC[C@H]1O[C@@](C#N)(c2ccc3c(N)ncnn23)[C@H](O)[C@@H]1O)OCc1ccc(OC)c(F)c1`, the selectivity ratio in data set [1] was 656; in data set [2], greater than 561; in [3], 1170; in data set [13] it was greater than 119.
For the compound `CCCCCCCCCCCCCCOC[C@H](COP(=O)(O)OC[C@H]1O[C@@](C#N)(c2ccc3c(N)ncnn23)[C@H](O)[C@@H]1O)OCc1ccccc1`, the selectivity ratio is greater than 469 in data set [1], greater than 110 in data set [2] and greater than 636 in data set [3].
